From patent US6814952B2, “Diagnostic imaging agent useful for selecting a therapy for cancerous bone metastasis” (Nihon Medi-Physics Co., Ltd., priority 2001, dated 2004)

Tests used:
osteoblast = assay: Uptake by osteoblast (cellular uptake experiment); assay type: cell-based, mouse
Description: (§1) Osteoblast was isolated from the parietal bone of a newborn mouse by means of stepwise enzyme digestion according to a method described by Takahashi et al. (Takahashi et al., Endocrinology, 123: 2600-2602 (1988)), and cultured using α-MEM (10% fetal calf serum) for 6 to 8 days for use in the following experiments. Furthermore, osteoclast was obtained by co-culturing osteoblastic cells and bone marrow cells for 6 to 8 days using α-MEM (10% fetal calf serum, 10^−8 M vitamin D3, pH 6.2) on a collagen-coated dish according to a method described by Takahashi et al. (Takahashi et al., Endocrinology, 122: 1373-1382 (1988)). The osteoclast was identified by means of tartaric acid-resistant acidic phosphatase dyeing.
Experiment of uptake by cells: The osteoblast or the co-cultured osteoclast was isolated using 35% Percoll and incubated using α-MEM (10% fetal calf serum) at 37° C. in an atmosphere of 5% CO2 and 95% air for 3 hours. […] Then, the cells were lysed with 0.2N NaOH, and radioactivity taken up by the cells was measured using a gamma counter. After completion of the radioactivity measurement, the amount of proteins contained in the cell lysate was measured using BCA Protein Assay Kit (produced by Pierce), and the ^99mTc-DMS uptake per unit protein mass (% dose/mg protein) was obtained. […]

osteoclast [1] = assay: Autoradiography of rat knee joint compared with osteoclast/osteoblast marker staining; assay type: in vivo, Wistar male rat; conditions: inferred from ^186Re(V)-DMS autoradiography in rat knee joint
Method: ^99mTc is unsuitable for autoradiography since it has a half life of 6 hours and is a gamma ray-emitting nuclide. Considering this, a radioisotope of Re that is a homologous element of Tc was used to evaluate the in vivo accumulation of ^99mTc(V)-DMS in osteoclast.
^186Re(V)-DMS prepared according to a method described by Horiuchi et al. (Nucl. Med. Biol. 26: 771-779 (1999)) was administered in an amount of 370 kBq to a Wistar male rat, and the rat was sacrificed 3 hours later. Knee joints were extracted, and 30 μm thick specimens were prepared and autoradiographed. Furthermore, from the same regions, 20 μm thick specimens were prepared and the tartaric acid-resistant acidic phosphatase as an osteoclast marker or the alkaline phosphatase as an osteoblast marker was detected by means of staining. The results of the autoradiography and staining were compared to evaluate the accumulation of ^99mTc(V)-DMS in osteoclast.

osteoclast [2] = assay: Uptake by osteoclast (cellular uptake experiment); assay type: cell-based, mouse
Description: as §1
Experiment of uptake by cells: The osteoblast or the co-cultured osteoclast was isolated using 35% Percoll and incubated using α-MEM (10% fetal calf serum) at 37° C. in an atmosphere of 5% CO2 and 95% air for 3 hours. The incubated cells were washed with an incubation buffer of pH 7.4 (10 mM HEPES, 5 mM glucose, 150 mM NaCl, 5 mM KCl, 1.8 mM MgSO4, 1 mM CaCl2) three times, and pre-incubated using the same buffer at 37° C. for 30 minutes. Then, the cells in incubation buffer containing ^99mTc(V)-DMS at a concentration of 129.5 kBq/mL were allowed to infiltrate, and washed with the ice-cooled incubation buffer three times, 5, 10, 30 and 60 minutes later. Then, the cells were lysed with 0.2N NaOH, and radioactivity taken up by the cells was measured using a gamma counter. After completion of the radioactivity measurement, the amount of proteins contained in the cell lysate was measured using BCA Protein Assay Kit (produced by Pierce), and the ^99mTc-DMS uptake per unit protein mass (% dose/mg protein) was obtained. As to ^99mTc-HMDP, a similar experiment was carried out for comparison.
In the method described in Example 2, the pH of the incubation buffer was set at 6.2, 6.6, 7.0, 7.4, 7.8 or 8.2, and the incubation time for ^99mTc(V)-DMS uptake was set at 10 minutes, to examine the effect of pH on the uptake of ^99mTc(V)-DMS by osteoclast and osteoblast. […]

[3] = system: Na^+-dependent phosphate transporter; assay: Participation of sodium ion-dependent phosphate transporter in uptake by osteoclast (phosphate anion, PFA, Na+, pH and cation effects); assay type: cell-based, mouse; conditions: varied [Pi], PFA 1 or 5 mM, cations, compared with K2H^32PO4, FIGS. 6 through 10
Method: In the method described in Example 2, an incubation buffer of pH 7.4 was used for pre-incubation, and the buffer containing ^99mTc(V)-DMS was an incubation buffer of pH 7.4 with the phosphate anion concentration ([Pi]) adjusted to 0 mM, 0.05 mM, 0.1 mM, 0.5 mM, 1.0 mM or 5.0 mM, while the incubation time was set at 5 minutes, to measure the uptake of ^99mTc(V)-DMS by osteoclast.
Furthermore, a similar experiment was carried out except that the buffer containing ^99mTc(V)-DMS was an incubation buffer of pH 7.4 containing 1 mM or 5 mM of phosphonoformic acid (PFA) which was a sodium ion-dependent phosphate transporter inhibitor.
Moreover, a similar experiment was carried out except that the buffer containing ^99mTc(V)-DMS was an incubation buffer of pH 7.4 with the sodium ion concentration ([Na^+]) adjusted in a range from 0.1 mM to 150 mM, and the incubation time for ^99mTc(V)-DMS uptake was set at 30 seconds, to measure the uptake of ^99mTc(V)-DMS into osteoclast.
In the method described in Example 2, the pH of the incubation buffer was set at 6.2, 6.6, 7.0, 7.4, 7.8 or 8.2, and the incubation time for ^99mTc(V)-DMS uptake was set at 30 seconds, to examine effct of pH on the uptake of ^99mTc(V)-DMS into osteoclast. A similar experiment was carried out for K2H^32PO4, to compare the behaviors of ^99mTc(V)-DMS and K2H^32PO4. […]

**Q.** What does the source list for “^99mTc(V)-dimercaptosuccinic acid [^99mTc(V)-DMS]”?
**A.** effect of pH on the cellular uptake by osteoblast (osteoblast; pH 6.2 to 8.2, incubation time 10 minutes, FIG. 3): does not show any significant difference; cellular uptake by osteoblast (uptake per unit protein mass) (osteoblast; time course 5, 10, 30 and 60 minutes, incubation buffer pH 7.4, 37° C., FIG. 1): taken up by osteoblastic cells in an amount smaller than ^99mTc-HMDP; accumulation in osteoclast in vivo, inferred from ^186Re(V)-DMS surrogate (osteoclast [1]): accumulation of ^99mTc(V)-DMS in osteoclast is specific; effect of pH on the cellular uptake by osteoclast (osteoclast [2]; pH 6.2 to 8.2, incubation time 10 minutes, FIG. 4): remarkably increases as the pH value decreases; effect of incubation modality (extracellular pH) on the cellular uptake by osteoclast (osteoclast [2]; pH of buffers for both pre-incubation and uptake 6.2, versus 7.4/6.2 and 7.4/7.4, 10 minutes, FIG. 5): the uptake of ^99mTc(V)-DMS rises; cellular uptake by osteoclast (uptake per unit protein mass) (osteoclast [2]; time course 5, 10, 30 and 60 minutes, incubation buffer pH 7.4, 37° C., FIG. 2): taken up by osteoclastic cells in an especially large amount; route of uptake by osteoclast [3]: taken up by osteoclast through the Na^+-dependent phosphate transporter
